Data on nine compounds can be found in patent US20240366612A1, “COMPOUNDS AND METHODS FOR MODULATING NUCLEIC ACID SPLICING” (REMIX THERAPEUTICS INC., priority 2021, published 2024).

Each structure is given as a SMILES string. Where a name gives a salt, the structure may show the parent alone.

Data set [1] has as its system SMN2 CJ mRNA. As to the kind of experiment: Gene panel canonical junction qPCR assay, SMN2. The format is cell-based. As to conditions: Homo sapiens, larger gene panel, read-out: SMN2 IC50 (decrease in CJ mRNA levels). How it is done: (§1) Compounds described herein were used to modulate RNA transcript abundance in cells. The expression of a target mRNA was measured by detecting the formation of an exon-exon junction in the canonical transcript (CJ). A compound mediated exon-inclusion event was detected by observing an increase in formation of a new junction with an alternative exon (AJ). Real-time qPCR assays were used to detect these splicing switches and interrogate the potency of various compounds towards different target genes. A high-throughput real time quantitative PCR (RT-qPCR) assay was developed to measure these two isoforms of the mRNA (CJ and AJ) for exemplary genes, such as HTT, SMN2, and MYB, together with a control housekeeping gene, GAPDH or GUSB or PPIA, used for normalization. Briefly, the A673 or K562 cell line was treated with various compounds described herein (e.g., compounds of Formula (I)). After treatment, the levels of the HTT, MYB, or SMN2 mRNA targets were determined from each sample of cell lysate by cDNA synthesis followed by qPCR.
(§2) The A673 cell line was cultured in DMEM with 10% FBS. Cells were diluted with full growth media and plated in a 96-well plate (15,000 cells in 100 ul media per well). The plate was incubated at 37° C. with 5% CO2 for 24 hours to allow cells to adhere. An 11-point 3-fold serial dilution of the compounds was made in DMSO then diluted in media in an intermediate plate. Compounds were transferred from the intermediate plate to the cell plate with the top dose at a final concentration of 10 uM in the well. Final DMSO concentration was kept at or below 0.25%. The cell plate was returned to the incubator at 37° C. with 5% CO2 for an additional 24 hours.
(§3) The K562 cell line was cultured in IMDM with 10% FBS. For K562, cells were diluted with full growth media and plated in either a 96-well plate (50,000 cells in 50 uL media per well) or a 384-well plate (8,000-40,000 cells in 45 uL media per well). An 11-point 3-fold serial dilution of the compounds were made in DMSO then diluted in media in an intermediate plate. Compound was transferred from the intermediate plate to the cell plate with the top dose at a final concentration of 10 uM in the well. Final DMSO concentration was kept at or below 0.25%. Final volume was 100 uL for 96-well plate and 50 uL for 384-well plate. The cell plate was then placed in an incubator at 37° C. with 5% CO2 for 24 hours.
(§4) The data analysis was performed by first determining the ΔCt vs the housekeeper gene. This ΔCt was then normalized against the DMSO control (ΔΔCt) and converted to RQ (relative quantification) using the 2^(−ΔΔCt) equation. The RQ were then converted to a percentage response by arbitrarily setting an assay window of 3.5 and 4.0 ΔCt for HTT-CJ and MYB-CJ respectively and an assay window of 9 and 3 ΔCt for HTT-AJ and MYB-AJ in 96 well format (50,000 K562 cells/well and 15,000 A673 cells per well) and an assay window of 3 and 4 ΔCt for HTT-CJ and MYB-CJ respectively and an assay window of 5 and 3 ΔCt for HTT-AJ and MYB-AJ respectively in 384 well format (8,000 K562 cells/well example). […] The percentage response was then fitted to the 4 parametric logistic equation to evaluate the concentration dependence of compound treatment. The increase in AJ mRNA is reported as AC50 (compound concentration having […] in AJ increase) while the decrease in CJ mRNA levels is reported as IC50 (compound concentration having 50% response in CJ decrease).
(§5) Additional studies were carried out for a larger panel of genes using the protocol provided above. The junction between flanking upstream and downstream exons was used to design canonical junction qPCR assays. At least one of the forward primer, reverse primer or the CY5-labeled 5′ nuclease probe (with 3′ quencher such as ZEN/Iowa Black FQ) was designed to overlap with the exon junction to capture the CJ mRNA transcript. […]

A short description of data set [2]: Cell Titer Glo 2.0 cell viability assay. As to conditions: human, K562 cells. A general note: In ATP-based viability assays light output follows the ATP content of the culture.
Experimental: Compounds described herein were screened for toxicity in K562 (human chronic myelogenous leukemia) cells using a Cell Titer Glo 2.0 assay.
• Promega CellTiter-Gbo® 2.0 Cell Viability Assay (cat #G9241) • Corning 384-well TC-treated microplates (cat #3570)
Cells were plated at 500 cells/well (K562 cells) in 45 μL of IMDM supplemented with 10% FBS in a 384-well opaque plate. Wells containing only medium were used as a blank control. Test compounds (e.g., compounds of Formula (I), (II), and (III)) were first serially diluted in DMSO then diluted 1:100 with IMDM+10% FBS. The final concentration of DMSO was 0.1% in each well. The cells were incubated for 72 hours at 37° C. and 5% CO2 before assaying with Cell Titer Glo 2.0 reagent.
Data set [3] has as its system MYB mRNA. As to the kind of experiment: Splicing RT-qPCR assay, MYB canonical (CJ) and alternative (AJ) junction mRNA. The format is cell-based. As to conditions: Homo sapiens, A673 or K562 cells, 24 hours treatment; for IC50: decrease in CJ mRNA; for AC50: increase in AJ mRNA. How it is done: as §1
(§6) • Cells-to-CT 1-step kit: ThermoFisher A25602, Cells-to-CT lysis reagent: ThermoFisher 4391851C, TaqMan™ Fast Virus 1-Step Master Mix: ThermoFisher 4444436 • GAPDH: VIC-PL, ThermoFisher 4326317E (Assay: Hs99999905_ml)—used for K562/suspension cell lines • GUSB: VIC-PL, ThermoFisher 4326320E (Assay: Hs99999908_ml)—used for K562/suspension cell lines • PPIA: VIC-PL, ThermoFisher 4326316E (Assay: Hs99999904_ml)—used for A673/adherent cell lines
as §2, §3
(§7) The cells were then gently washed with 50 uL-100 uL cold PBS before proceeding to addition of lysis buffer. 30 uL-50 μL of room temperature lysis buffer with DNAse I (and optionally RNAsin) was added to each well. Cells were shaken/mixed thoroughly at room temperature for 5-10 minutes for lysis to take place and then 3 uL-5 μL of room temperature stop solution was added and wells were shaken/mixed again. After 2-5 minutes, the cell lysate plate was transferred to ice for RT-qPCR reaction setup. The lysates could also be frozen at −80° C. for later use.
(§8) In some cases, a direct lysis buffer was used. An appropriate volume of 3×lysis buffer (10 mM Tris, 150 mM NaCl, 1.5%-2.5% Igepal and 0.1-1 U/uL RNAsin, pH 7.4) was directly added to either K562 or A673 cells in media and mixed by pipetting 3 times. The plates were then incubated at room temperature with shaking/rocking for 20-50 minutes to allow for lysis to take place. After this time, the cell lysate plate was transferred to ice to set up for the RT-qPCR reactions. The lysates could also be frozen at −80° C. for later use. […]
(In qPCR the cycle at which signal appears reflects the starting amount.)

In data set [4] the test system is HTT mRNA. The data set is described as follows: Splicing RT-qPCR assay, HTT canonical (CJ) and alternative (AJ) junction mRNA. The format is cell-based. The following applies: Homo sapiens, A673 or K562 cells, 24 hours treatment; for IC50: decrease in CJ mRNA; for AC50: increase in AJ mRNA. How it is done: as §1, §6, §2, §3, §7, §8
For data set [5], the system named is HTT CJ mRNA. As to the kind of experiment: Gene panel canonical junction qPCR assay, HTT. The following applies: Homo sapiens, larger gene panel, read-out: HTT IC50 (decrease in CJ mRNA levels). It is filed as cell-based. How it is done:
as §1, §2, §3, §4, §5

Data set [6] concerns Target C CJ mRNA. As to the kind of experiment: Gene panel canonical junction qPCR assay, Target C. The format is cell-based. As to conditions: Homo sapiens, larger gene panel, read-out: Target C IC50 (decrease in CJ mRNA levels). On the procedure: as §1, §2, §3, §4, §5

Usually IC50 stands for the concentration that inhibits the measured activity by half. Usually GI50 stands for the concentration that inhibits growth by half. The term AC50 denotes the concentration giving half of the maximal activity seen. As to `Cc1cn2cc(-c3cc4ncn([C@H]5CCNC[C@@H]5F)c(=O)c4s3)cc(F)c2n1` (relative stereo) [Compound 272, trans-6-{8-fluoro-2-methylimidazo[1,2-a]pyridin-6-yl}-3-[3-fluoropiperidin-4-yl]thieno[3,2-d]pyrimidin-4-one], the IC50 in data set [1] was under 100 nM; in data set [3], 1000 to 10000 nM; in data set [4], 1000 to 10000 nM; in data set [5], 1000 to 10000 nM; in data set [6], over 10000 nM. The compound also returned a GI50 at 72 h in data set [2] of over 10000 nM. Besides, the concentration at half-maximal activity (AC50) in data set [3] is 1000 to 10000 nM; in data set [4], over 10000 nM.

Consider `Cc1cn2cc(-c3cc4ncn([C@H]5CCNC[C@H]5F)c(=O)c4s3)cc(F)c2n1` (relative stereo) [Compound 273, cis-6-{8-fluoro-2-methylimidazo[1,2-a]pyridin-6-yl}-3-[3-fluoropiperidin-4-yl]thieno[3,2-d]pyrimidin-4-one], for which the IC50 lay within 100 to 1000 nM in data set [1]; 100 to 1000 nM in data set [3]; 100 to 1000 nM in data set [4]; 100 to 1000 nM in data set [5]; 1000 to 10000 nM in data set [6]. The compound also returned a GI50 at 72 h in data set [2] of 1000 to 10000 nM. In addition, the values for the AC50 in data set [3] and in data set [4] were 100 to 1000 nM and 1000 to 10000 nM, respectively.

For `Cc1cn2cc(-c3cc4ncn([C@H]5CCN[C@H](C)C5)c(=O)c4s3)cc(F)c2n1` (relative stereo) [Compound 277, 6-{8-fluoro-2-methylimidazo[1,2-a]pyridin-6-yl}-3-[(trans)-2-methylpiperidin-4-yl]thieno[3,2-d]pyrimidin-4-one], the IC50 in data set [1] is under 100 nM; in data set [3] it was 100 to 1000 nM; in data set [4], 100 to 1000 nM; in data set [5], 100 to 1000 nM; in data set [6], 1000 to 10000 nM. In data set [2], this compound had a GI50 at 72 h of 100 to 1000 nM. Further, the AC50 in data set [3] and in data set [4] was 100 to 1000 nM in each case.

As to `Cc1cn2cc(-c3cc4ncn([C@H]5CCN[C@@H](C)C5)c(=O)c4s3)cc(F)c2n1` (relative stereo) [Compound 278, 6-{8-fluoro-2-methylimidazo[1,2-a]pyridin-6-yl}-3-[(cis)-2-methylpiperidin-4-yl]thieno[3,2-d]pyrimidin-4-one hydrochloride], the IC50 in data set [1] is under 100 nM; in data set [3] it was 100 to 1000 nM; in data set [4] it was 100 to 1000 nM; in data set [5] it was 100 to 1000 nM; in data set [6], 100 to 1000 nM. In addition, in data set [2], the GI50 at 72 h fell in the range of 100 to 1000 nM. In addition, the AC50 in data set [3] and in data set [4] was 100 to 1000 nM throughout.

As for `Cc1cc(-c2cc(=O)n3cc(N4CCN(C)CC4)sc3n2)cc2cn(C)nc12` [Compound 109, 7-(2,7-dimethyl-2H-indazol-5-yl)-2-(4-methylpiperazin-1-yl)-5H-thiazolo[3,2-a]pyrimidin-5-one], the IC50 in data set [1], in data set [3], in data set [4], in data set [5] and in data set [6] was over 10000 nM throughout. The GI50 at 72 h in data set [2] was in the range of 1000 to 10000 nM. In addition, the concentration at half-maximal activity (AC50) in data set [3] is 1000 to 10000 nM; in data set [4], over 10000 nM.

Turning to `Cc1cc(-c2cc(=O)n3nc(N4CCN(C)CC4)sc3n2)cc2cn(C)nc12` [Compound 157, 7-(2,7-dimethyl-2H-indazol-5-yl)-2-(4-methylpiperazin-1-yl)-5H-[1,3,4]thiadiazolo[3,2-a]pyrimidin-5-one], the IC50 in data set [1], in data set [3], in data set [4], in data set [5] and in data set [6] was over 10000 nM in each case. The GI50 at 72 h in data set [2] was over 10000 nM. For the same compound, the AC50 in data set [3] and in data set [4] was over 10000 nM each time.

Consider `Cc1cn2nc(-c3cc(=O)n4cc(N(C)C5CC(C)(C)NC(C)(C)C5)sc4n3)cc(C)c2n1` [Compound 205, 7-(2,8-dimethylimidazo[1,2-b]pyridazin-6-yl)-2-(methyl(2,2,6,6-tetramethylpiperidin-4-yl)amino)-5H-thiazolo[3,2-a]pyrimidin-5-one], for which the IC50 in data set [1], in data set [3], in data set [4], in data set [5] and in data set [6] was 1000 to 10000 nM each time. In addition, the AC50 in data set [3] and in data set [4] was 1000 to 10000 nM throughout.

Consider `Cc1cn2cc(-c3nn4c(=O)cc(N(C)C5CC(C)(C)NC(C)(C)C5)nc4s3)cc(F)c2n1` [Compound 215, 2-(8-fluoro-2-methylimidazo[1,2-a]pyridin-6-yl)-7-(methyl(2,2,6,6-tetramethylpiperidin-4-yl)amino)-5H-[1,3,4]thiadiazolo[3,2-a]pyrimidin-5-one], for which the IC50 in data set [1] is 100 to 1000 nM; in data set [3], 1000 to 10000 nM; in data set [4] it was 1000 to 10000 nM; in data set [5] it was 1000 to 10000 nM; in data set [6], 1000 to 10000 nM. In addition, the AC50 in data set [3] and in data set [4] was 1000 to 10000 nM throughout.

As for `Cc1cn2cc(-n3cnc4nc(N(C)C5CC(C)(C)NC(C)(C)C5)sc4c3=O)cc(F)c2n1` [Compound 227, 6-(8-fluoro-2-methylimidazo[1,2-a]pyridin-6-yl)-2-(methyl(2,2,6,6-tetramethylpiperidin-4-yl)amino)thiazolo[4,5-d]pyrimidin-7(6H)-one, formate], the IC50 in data set [1], in data set [3], in data set [4], in data set [5] and in data set [6] was over 10000 nM each time. The AC50 in data set [3] and in data set [4] was over 10000 nM each time.
